Results taken from ChEMBL document CHEMBL4828766 (J Med Chem, 2021).
Activity calls are given as the source filed them. The rule behind the calls is not given here. Square brackets hold non-standard residues; d marks the D form. Peptide text beside a SMILES is read from it. Phe(4-I) = N[C@@H](Cc1ccc(I)cc1)C(=O)O; dPhe(4-I) = N[C@H](Cc1ccc(I)cc1)C(=O)O; 2Nal = N[C@@H](Cc1ccc2ccccc2c1)C(=O)O; d2Nal = N[C@H](Cc1ccc2ccccc2c1)C(=O)O

Columns and labels:
[1] = target: Melanocortin receptor 3 (Mus musculus) (UniProt P33033); assay: Agonist activity at mouse MC3R expressed in HEK293 cells assessed as induction of cAMP level at 100 uM incubated for 2 hr by alphaScreen assay relative to control; type: functional, cell-based
[2] = target: Melanocortin receptor 4 (Mus musculus) (UniProt P56450); assay: Agonist activity at mouse MC4R expressed in HEK293 cells assessed as induction of cAMP level at 100 uM incubated for 2 hr by alphaScreen assay relative to control; type: functional, cell-based
Target sequence in this assay (P56450 whole entry): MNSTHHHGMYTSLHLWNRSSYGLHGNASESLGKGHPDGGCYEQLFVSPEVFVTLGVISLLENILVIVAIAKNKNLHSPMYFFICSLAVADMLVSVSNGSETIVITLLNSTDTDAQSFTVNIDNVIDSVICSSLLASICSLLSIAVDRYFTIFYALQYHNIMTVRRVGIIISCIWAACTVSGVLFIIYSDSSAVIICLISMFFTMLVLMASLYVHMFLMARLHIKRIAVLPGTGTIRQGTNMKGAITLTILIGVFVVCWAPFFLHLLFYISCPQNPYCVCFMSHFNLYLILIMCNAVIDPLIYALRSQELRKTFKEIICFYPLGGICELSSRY

Melanocortin receptor 4 [3] = target: T1, Melanocortin receptor 4 (Mus musculus, UniProt P56450); assay: Antagonist activity at mouse melanocortin receptor 4 expressed in HEK293 cells assessed as inhibition of NDP-MSH-induced cAMP accumulation incubated for 2 hrs by cAMP Alpha-screen assay based Schild analysis; type: functional, cell-based; settings: for Kb: read-out: pA2 (converted)
[4] = target: Melanocyte-stimulating hormone receptor (Mus musculus) (UniProt Q01727); assay: Agonist activity at mouse MC1R expressed in HEK293 cells assessed as induction of cAMP level at 100 uM incubated for 2 hr by alphaScreen assay relative to NDP-MSH; type: functional, cell-based
Melanocortin receptor 3 [5] = target: T2, Melanocortin receptor 3 (Mus musculus, UniProt P33033); assay: (§1) Antagonist activity at mouse melanocortin receptor 3 expressed in HEK293 cells assessed as inhibition of NDP-MSH-induced cAMP accumulation incubated for 2 hrs by cAMP Alpha-screen assay based Schild analysis; type: functional, cell-based; settings: for Kb: read-out: pA2 (converted)
[6] = target: T3, Melanocyte-stimulating hormone receptor (Mus musculus, UniProt Q01727); assay: Partial agonist activity at mouse MC1R expressed in HEK293 cells assessed as induction of cAMP level incubated for 2 hr by alphaScreen assay; type: functional, cell-based
[7] = target: Melanocyte-stimulating hormone receptor (Mus musculus) (UniProt Q01727); assay: Partial agonist activity at mouse MC1R expressed in HEK293 cells assessed as induction of cAMP level at 100 uM incubated for 2 hr by alphaScreen assay relative to control; type: functional, cell-based
[8] = target: Melanocortin receptor 5 (Mus musculus) (UniProt P41149); assay: Agonist activity at mouse MC5R expressed in HEK293 cells assessed as induction of cAMP level at 100 uM incubated for 2 hr by alphaScreen assay relative to control; type: functional, cell-based
Melanocortin receptor 4 [9] = target: T1, Melanocortin receptor 4; assay: Agonist activity at mouse MC4R expressed in HEK293 cells assessed as induction of cAMP level incubated for 2 hr by alphaScreen assay; type: functional, cell-based
Melanocortin receptor 3 [10] = target: T2, Melanocortin receptor 3; assay: Agonist activity at mouse MC3R expressed in HEK293 cells assessed as induction of cAMP level incubated for 2 hr by alphaScreen assay; type: functional, cell-based
Melanocortin receptor 5 = Melanocortin receptor 5 (Mus musculus, UniProt P41149); assay: Agonist activity at mouse MC5R expressed in HEK293 cells assessed as induction of cAMP level at 100 uM incubated for 2 hr by alphaScreen assay; type: functional, cell-based
[11] = target: Melanocortin receptor 4 (Mus musculus) (UniProt P56450); assay: Antagonist activity at mouse melanocortin receptor 4 expressed in HEK293 cells assessed as inhibition of NDP-MSH-induced cAMP accumulation incubated for 2 hrs by cAMP Alpha-screen assay based Schild analysis
Target sequence in this assay (P56450 whole entry, looked up): as the sequence (P56450 whole entry) above

[12] = target: Melanocortin receptor 3 (Mus musculus) (UniProt P33033); assay: as §1; type: functional, cell-based
[13] = target: T3, Melanocyte-stimulating hormone receptor; assay: Agonist activity at mouse MC1R expressed in HEK293 cells assessed as induction of cAMP level at 100 uM incubated for 2 hr by alphaScreen assay; type: functional, cell-based
[14] = target: Melanocortin receptor 3 (Homo sapiens) (UniProt P41968); assay: Inhibition of [125 I][Nle 4,D -Phe 7]alpha-MSH binding to human MC3R expressed in African green monkey COS-1 cell membrane by gamma-counter method; type: cell membranes
[15] = target: Melanocortin receptor 4 (Homo sapiens) (UniProt P32245); assay: Inhibition of [125 I][Nle 4,D -Phe 7]alpha-MSH binding to human MC4R expressed in African green monkey COS-1 cell membrane by gamma-counter method; type: cell membranes
Chain of Melanocortin receptor 4 (Homo sapiens) (P32245 whole entry): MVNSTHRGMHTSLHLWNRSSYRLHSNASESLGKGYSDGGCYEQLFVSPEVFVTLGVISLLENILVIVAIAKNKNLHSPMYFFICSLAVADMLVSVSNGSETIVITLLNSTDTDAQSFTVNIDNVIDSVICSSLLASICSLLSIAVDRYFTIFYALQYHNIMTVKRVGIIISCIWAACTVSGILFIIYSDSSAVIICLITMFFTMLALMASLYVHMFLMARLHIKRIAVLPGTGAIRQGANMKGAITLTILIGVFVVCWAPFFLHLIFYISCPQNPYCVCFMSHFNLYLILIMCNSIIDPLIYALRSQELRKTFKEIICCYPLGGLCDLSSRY

Chain of Melanocortin receptor 5 (Mus musculus) (P41149 whole entry): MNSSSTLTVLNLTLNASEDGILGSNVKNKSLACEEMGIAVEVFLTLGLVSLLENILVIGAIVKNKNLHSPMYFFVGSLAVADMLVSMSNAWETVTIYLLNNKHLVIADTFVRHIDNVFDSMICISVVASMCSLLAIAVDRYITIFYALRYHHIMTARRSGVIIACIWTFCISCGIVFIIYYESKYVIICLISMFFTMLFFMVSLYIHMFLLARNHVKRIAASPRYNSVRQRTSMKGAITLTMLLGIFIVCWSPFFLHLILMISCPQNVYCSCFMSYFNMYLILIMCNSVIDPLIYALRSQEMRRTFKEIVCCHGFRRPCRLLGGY
Chain of Melanocortin receptor 5 (P41149 whole entry): as above
T3 sequence (Q01727 whole entry): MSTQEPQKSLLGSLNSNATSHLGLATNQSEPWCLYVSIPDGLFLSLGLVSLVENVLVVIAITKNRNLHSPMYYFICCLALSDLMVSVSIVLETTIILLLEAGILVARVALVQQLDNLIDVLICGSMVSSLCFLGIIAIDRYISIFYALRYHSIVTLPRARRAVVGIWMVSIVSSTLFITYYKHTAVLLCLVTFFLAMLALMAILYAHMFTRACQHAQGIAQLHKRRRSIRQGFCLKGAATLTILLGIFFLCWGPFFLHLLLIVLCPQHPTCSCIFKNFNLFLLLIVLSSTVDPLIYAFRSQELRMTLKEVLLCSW
Chain of Melanocyte-stimulating hormone receptor (Mus musculus) (Q01727 whole entry, looked up): as the sequence (Q01727 whole entry) above
T1 sequence (P56450 whole entry): as the sequence (P56450 whole entry) above
T2 sequence (P33033 whole entry): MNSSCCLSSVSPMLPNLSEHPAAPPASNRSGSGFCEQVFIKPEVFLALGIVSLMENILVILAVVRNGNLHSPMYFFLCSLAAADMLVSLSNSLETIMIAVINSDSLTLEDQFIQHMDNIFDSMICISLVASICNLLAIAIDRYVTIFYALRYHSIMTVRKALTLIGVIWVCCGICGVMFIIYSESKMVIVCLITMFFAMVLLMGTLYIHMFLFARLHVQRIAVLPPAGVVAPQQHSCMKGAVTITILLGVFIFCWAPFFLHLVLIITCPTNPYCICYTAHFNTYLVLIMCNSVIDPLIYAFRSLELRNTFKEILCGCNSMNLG
Chain of Melanocortin receptor 3 (Mus musculus) (P33033 whole entry): as above
Chain of Melanocortin receptor 3 (Homo sapiens) (P41968 whole entry): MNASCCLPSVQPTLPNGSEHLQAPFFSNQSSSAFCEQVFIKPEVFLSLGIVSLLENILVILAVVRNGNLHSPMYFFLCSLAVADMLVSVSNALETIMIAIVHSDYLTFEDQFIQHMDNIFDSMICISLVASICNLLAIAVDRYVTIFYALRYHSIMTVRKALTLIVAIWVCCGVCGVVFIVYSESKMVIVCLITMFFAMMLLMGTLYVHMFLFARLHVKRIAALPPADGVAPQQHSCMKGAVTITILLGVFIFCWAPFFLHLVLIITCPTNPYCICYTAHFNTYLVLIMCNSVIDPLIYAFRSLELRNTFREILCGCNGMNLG

SMILES | Activity [2] | Kb (Melanocortin receptor 4 [3]) | Kb (Melanocortin receptor 3 [5]) | EC50 (Melanocortin receptor 4 [9]) | EC50 (Melanocortin receptor 3 [10]) | EC50 (Melanocortin receptor 5) | further results
CC(=O)N[C@H](Cc1ccc2ccccc2c1)C(=O)N[C@H](Cc1ccc2ccccc2c1)C(=O)N[C@H](Cc1ccc2ccccc2c1)C(=O)N[C@@H](CCCNC(=N)N)C(N)=O | 25% | > 3160 nM | > 3160 nM |  |  |  | Activity [1]: 35%; Activity [4]: 30%
CC(=O)N[C@H](Cc1ccc2ccccc2c1)C(=O)N[C@@H](CCCNC(=N)N)C(=O)N[C@H](Cc1ccc2ccccc2c1)C(=O)N[C@H](Cc1ccc2ccccc2c1)C(N)=O (Ac-[d2Nal]R[d2Nal][d2Nal]-NH2) |  | 501 nM | 2000 nM |  |  |  | Activity ([1]; filed as agonist): 50%; Activity ([2]; filed as agonist): 45%; EC50 [6]: 5000 nM; Activity ([7]; filed as partial agonist): 85%; Activity [8]: 20%
CC(=O)N[C@H](Cc1ccc2ccccc2c1)C(=O)N[C@H](Cc1ccc2ccccc2c1)C(=O)N[C@@H](Cc1ccc2ccccc2c1)C(=O)N[C@@H](CCCNC(=N)N)C(N)=O |  | > 3160 nM | > 3160 nM | > 100000 nM | > 100000 nM |  | Activity ([4]; filed as agonist): 55%; Activity ([8]; filed as agonist): 40%
CC(=O)N[C@H](Cc1ccc2ccccc2c1)C(=O)N[C@@H](CCCNC(=N)N)C(=O)N[C@H](Cc1ccc2ccccc2c1)C(=O)N[C@@H](CCCNC(=N)N)C(N)=O (Ac-[d2Nal]R[d2Nal]R-NH2) |  | 5.01 nM | 794 nM | > 100000 nM | > 100000 nM | > 100000 nM | EC50 [6]: 1000 nM; Activity ([7]; filed as partial agonist): 60%
CC(=O)N[C@H](Cc1ccc(I)cc1)C(=O)N[C@@H](CCCNC(=N)N)C(=O)N[C@@H](Cc1c[nH]c2ccccc12)C(=O)N[C@@H](CCCNC(=N)N)C(N)=O (Ac-[dPhe(4-I)]RWR-NH2) |  | 2 nM | 39.8 nM | > 100000 nM |  | > 100000 nM | Activity [1]: 25%; Ki (Melanocortin receptor 4 [3]): 2 nM; EC50 [6]: 7900 nM; Activity ([7]; filed as partial agonist): 50%; Ki (Melanocortin receptor 3 [5]): 40 nM
CC(=O)N[C@H](Cc1ccc(I)cc1)C(=O)N[C@@H](CCCNC(=N)N)C(=O)N[C@H](Cc1ccc2ccccc2c1)C(=O)N[C@H](Cc1ccc2ccccc2c1)C(N)=O (Ac-[dPhe(4-I)]R[d2Nal][d2Nal]-NH2) |  | 200 nM | 794 nM |  |  |  | Activity ([1]; filed as agonist): 45%; Activity ([2]; filed as agonist): 45%; Ki (Melanocortin receptor 4 [3]): 200 nM; Activity ([4]; filed as agonist): 80%; Ki (Melanocortin receptor 3 [5]): 790 nM; Activity [8]: 20%
CC(=O)N[C@H](Cc1ccc2ccccc2c1)C(=O)N[C@@H](CCCNC(=N)N)C(=O)N[C@@H](Cc1ccc2ccccc2c1)C(=O)N[C@H](CCCCN)C(N)=O (Ac-[d2Nal]R[2Nal][dK]-NH2) |  | 15.8 nM | 631 nM | > 100000 nM | > 100000 nM | > 100000 nM | EC50 [6]: 3300 nM; Activity ([7]; filed as partial agonist): 50%
CC(=O)N[C@@H](Cc1ccc(I)cc1)C(=O)N[C@@H](Cc1ccc2ccccc2c1)C(=O)N[C@@H](Cc1ccc(I)cc1)C(=O)N[C@@H](CCCNC(=N)N)C(N)=O (Ac-[Phe(4-I)][2Nal][Phe(4-I)]R-NH2) |  |  |  | > 100000 nM | > 100000 nM | > 100000 nM | pA2 [11]: inactive; Activity ([4]; filed as agonist): 60%; pA2 [12]: inactive
CC(=O)N[C@H](Cc1ccc2ccccc2c1)C(=O)N[C@@H](CCCNC(=N)N)C(=O)N[C@@H](Cc1c[nH]c2ccccc12)C(=O)N[C@H](Cc1ccc2ccccc2c1)C(N)=O (Ac-[d2Nal]RW[d2Nal]-NH2) | 30% | 100 nM | 2000 nM |  |  | > 100000 nM | Activity ([1]; filed as agonist): 40%
CC(=O)N[C@H](Cc1ccc2ccccc2c1)C(=O)N[C@@H](CCCNC(=N)N)C(=O)N[C@@H](Cc1ccc2ccccc2c1)C(=O)N[C@@H](CCCNC(=N)N)C(N)=O (Ac-[d2Nal]R[2Nal]R-NH2) | 30% | 1.58 nM | 100 nM |  | > 100000 nM | > 100000 nM | EC50 [13]: > 100000 nM
CC(=O)N[C@H](Cc1ccc2ccccc2c1)C(=O)N[C@H](Cc1ccc2ccccc2c1)C(=O)N[C@@H](Cc1c[nH]c2ccccc12)C(=O)N[C@@H](CCCNC(=N)N)C(N)=O (Ac-[d2Nal][d2Nal]WR-NH2) |  | > 3160 nM | > 3160 nM |  |  |  | Activity [1]: 35%; Activity ([2]; filed as agonist): 60%; Activity ([4]; filed as agonist): 45%; Activity ([8]; filed as agonist): 45%
CC(=O)N[C@H](Cc1ccc(I)cc1)C(=O)N[C@@H](CCCNC(=N)N)C(=O)N[C@H](Cc1ccc(I)cc1)C(=O)N[C@H](Cc1ccc2ccccc2c1)C(N)=O (Ac-[dPhe(4-I)]R[dPhe(4-I)][d2Nal]-NH2) |  | 251 nM | 501 nM |  |  |  | EC50 [13]: 1100 nM; Activity ([1]; filed as agonist): 40%; Activity ([2]; filed as agonist): 40%; Ki (Melanocortin receptor 4 [3]): 250 nM; Ki (Melanocortin receptor 3 [5]): 500 nM; Activity ([8]; filed as agonist): 65%
CC(=O)N[C@H](Cc1ccc2ccccc2c1)C(=O)N[C@@H](CCCNC(=N)N)C(=O)N[C@@H](Cc1ccc2ccccc2c1)C(=O)N[C@H](Cc1ccc2ccccc2c1)C(N)=O (Ac-[d2Nal]R[2Nal][d2Nal]-NH2) | 30% | 200 nM | > 3160 nM |  |  |  | Activity [1]: 30%; Activity [8]: 25%
CC(=O)N[C@H](Cc1ccc(I)cc1)C(=O)N[C@@H](CCCNC(=N)N)C(=O)N[C@H](Cc1ccc2ccccc2c1)C(=O)N[C@H](CCCCN)C(N)=O (Ac-[dPhe(4-I)]R[d2Nal][dK]-NH2) |  |  |  |  |  |  | Activity [7]: 30%
CC(=O)N[C@@H](Cc1ccc2ccccc2c1)C(=O)N[C@@H](CCCNC(=N)N)C(=O)N[C@@H](Cc1ccc2ccccc2c1)C(N)=O |  |  |  |  |  |  | Activity [14]: 1120 nM; Activity [15]: 11.6 nM
CC(=O)N[C@H](Cc1ccc(I)cc1)C(=O)N[C@@H](CCCNC(=N)N)C(=O)N[C@@H](Cc1c[nH]c2ccccc12)C(=O)N[C@H](Cc1ccc2ccccc2c1)C(N)=O (Ac-[dPhe(4-I)]RW[d2Nal]-NH2) | 35% | 25.1 nM | 1000 nM |  |  | > 100000 nM | Activity [1]: 25%; Ki (Melanocortin receptor 4 [3]): 25 nM; Activity ([4]; filed as agonist): 45%; Ki (Melanocortin receptor 3 [5]): 1000 nM
CC(=O)N[C@H](Cc1ccc2ccccc2c1)C(=O)N[C@@H](CCCNC(=N)N)C(=O)N[C@H](Cc1ccc(I)cc1)C(=O)N[C@H](Cc1ccc2ccccc2c1)C(N)=O (Ac-[d2Nal]R[dPhe(4-I)][d2Nal]-NH2) | 30% |  |  |  |  |  | Activity ([8]; filed as agonist): 40%
CC(=O)N[C@H](Cc1ccc2ccccc2c1)C(=O)N[C@@H](CCCNC(=N)N)C(=O)N[C@H](Cc1ccc2ccccc2c1)C(=O)N[C@H](CCCCN)C(N)=O (Ac-[d2Nal]R[d2Nal][dK]-NH2) |  | 6.31 nM | 1000 nM | > 100000 nM | > 100000 nM | > 100000 nM | EC50 [6]: 6000 nM; Activity [7]: 30%
